Reference: patent US20240109900A1, “AZABICYCLIC SHP2 INHIBITORS” (IRBM S.P.A., priority 2021, published 2024)
pIC50: −log10 of the molar value. Where two headings read alike, the source gives them in different places.

Tests used:
[1] = molecular target: SHP-2 enzyme (Met1-Leu525) (Homo sapiens (Human), UniProt Q06124); experiment: SHP2 inhibition enzymatic assay; type: biochemical; conditions: 0.5 nM SHP-2 activated by 500 nM IRS1 peptide, 75 μM DiFMUP substrate; read-out: SHP2wt-IC50
Summary of the method: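 Compounds were preincubated 30 min with 0.5 nM SHP-2 (Met1-Leu525) plus 500 nM IRS1 activating peptide (pH 7.2 HEPES, 5 mM DTT), then 75 μM DiFMUP substrate reacted 30 min at room temperature. After bpV quench, DiFMUP fluorescence gave % inhibition; four-parameter logistic fit yielded IC50.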

[2] = system: ERK phosphorylation in KYSE-520 cells; experiment: Phospho-ERK cellular assay; type: cell-based; conditions: KYSE-520 cells, 2 h at 37° C., phospho-ERK1/2 (Thr202/Tyr204) TR-FRET, read-out: PERK IC50
Summary of the method: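 TR-FRET read-out of ERK1/2 Thr202/Tyr204 phosphorylation was taken after overnight antibody incubation at room temperature. Before that, KYSE-520 cells were treated 2 h at 37 °C with compound dilutions and lysed 30 min. Percent inhibition relative to vehicle and cell-free wells was fitted four-parametrically to give IC50.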

Sequence of SHP-2 enzyme (Met1-Leu525) (Q06124 1-525): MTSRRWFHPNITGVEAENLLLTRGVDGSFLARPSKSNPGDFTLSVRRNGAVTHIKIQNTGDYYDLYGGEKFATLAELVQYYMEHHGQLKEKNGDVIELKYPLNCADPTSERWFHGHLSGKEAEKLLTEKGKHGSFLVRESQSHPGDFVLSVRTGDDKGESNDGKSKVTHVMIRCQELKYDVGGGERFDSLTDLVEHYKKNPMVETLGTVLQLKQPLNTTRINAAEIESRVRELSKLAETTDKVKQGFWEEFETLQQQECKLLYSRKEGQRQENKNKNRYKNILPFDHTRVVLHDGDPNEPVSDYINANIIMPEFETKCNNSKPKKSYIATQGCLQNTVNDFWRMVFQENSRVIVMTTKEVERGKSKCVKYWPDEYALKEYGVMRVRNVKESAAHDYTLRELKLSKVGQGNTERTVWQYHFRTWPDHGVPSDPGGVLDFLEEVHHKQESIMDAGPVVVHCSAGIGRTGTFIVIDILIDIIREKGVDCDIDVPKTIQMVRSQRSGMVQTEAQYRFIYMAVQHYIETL

SMILES	pIC50 [1]	pIC50 ([2]; Homo sapiens, KYSE-520, 2 h)	pIC50 [2]
Cc1cc([C@@]2(CN)[C@@H]3CCN(c4cnc5c(-c6ccc(C(C)O)c7ncccc67)n[nH]c5n4)C[C@@H]32)no1 (stereo partly drawn) [Example 134, 1-(5-(6-((1S,6R,7S)-7-(aminomethyl)-7-(5-methylisoxazol-3-yl)-3-azabicyclo[4.1.0]heptan-3-yl)-1H-pyrazolo[3,4-b]pyrazin-3-yl)quinolin-8-yl)ethan-1-ol]	> 6.30	> 6.00	
Cn1cc2c(Cl)c(-c3n[nH]c4nc(N5C[C@@H]6[C@H](C5)[C@@]6(CN)c5cccc(Cl)n5)cnc34)ccc2n1 [Example 494, ((1R,5S,6r)-3-(3-(4-chloro-2-methyl-2H-indazol-5-yl)-1H-pyrazolo[3,4-b]pyrazin-6-yl)-6-(6-chloropyridin-2-yl)-3-azabicyclo[3.1.0]hexan-6-yl)methanamine]	> 6.30	> 6.00	
Cc1cc([C@@]2(CN)[C@@H]3CN(c4cnc5c(-c6ccc7nn(C)cc7c6Cl)n[nH]c5n4)C[C@@H]32)no1 [Example 275, ((1R,5S,6r)-3-(3-(4-chloro-2-methyl-2H-indazol-5-yl)-1H-pyrazolo[3,4-b]pyrazin-6-yl)-6-(5-methylisoxazol-3-yl)-3-azabicyclo[3.1.0]hexan-6-yl)methanamine]	> 6.30		> 6.00
Cn1cc2c(Cl)c(-c3n[nH]c4nc(N5C[C@@H]6[C@H](C5)[C@@]6(CN)c5ncc(F)s5)cnc34)ccc2n1 [Example 489, ((1R,5S,6r)-3-(3-(4-chloro-2-methyl-2H-indazol-5-yl)-1H-pyrazolo[3,4-b]pyrazin-6-yl)-6-(5-fluorothiazol-2-yl)-3-azabicyclo[3.1.0]hexan-6-yl)methanamine]	> 6.30	> 6.00	
Cc1csc(C2(CN)[C@@H]3CN(c4cnc5c(-c6cccn7nccc67)n[nH]c5n4)C[C@@H]32)n1 (stereo partly drawn) [Example 482]	> 6.30		> 6.00
NC[C@]1(c2ccccc2F)[C@@H]2CCN(c3cnc4c(-c5cc(F)c(CO)c(F)c5)n[nH]c4n3)C[C@@H]21 [Example 381, (4-(6-((1S,6R,7R)-7-(aminomethyl)-7-(2-fluorophenyl)-3-azabicyclo[4.1.0]heptan-3-yl)-1H-pyrazolo[3,4-b]pyrazin-3-yl)-2,6-difluorophenyl)methanol]	> 6.30	< 5.30	
Cc1nc2ccc(-c3n[nH]c4nc(N5C[C@@H]6[C@H](C5)[C@@]6(CN)c5ccn(C)n5)cnc34)c(Cl)c2s1 [Example 475, ((1R,5S,6r)-3-(3-(7-chloro-2-methylbenzo[d]thiazol-6-yl)-1H-pyrazolo[3,4-b]pyrazin-6-yl)-6-(1-methyl-1H-pyrazol-3-yl)-3-azabicyclo[3.1.0]hexan-6-yl)methanamine]	> 6.30	> 6.00	
NC[C@]1(c2ccccc2F)[C@@H]2CCN(c3cnc4c(-c5ccc6c(c5)NC(=O)NC6)n[nH]c4n3)C[C@@H]21 [Example 372, 7-(6-((1S,6R,7R)-7-(aminomethyl)-7-(2-fluorophenyl)-3-azabicyclo[4.1.0]heptan-3-yl)-1H-pyrazolo[3,4-b]pyrazin-3-yl)-3,4-dihydroquinazolin-2(1H)-one]	> 6.30	> 6.00	
NC[C@]1(c2ccccc2F)[C@@H]2CCN(c3cnc4c(-c5ccc6nc(C(F)(F)F)ncc6c5)n[nH]c4n3)C[C@@H]21 [Example 309, ((1S,6R,7R)-7-(2-fluorophenyl)-3-(3-(2-(trifluoromethyl)quinazolin-6-yl)-1H-pyrazolo[3,4-b]pyrazin-6-yl)-3-azabicyclo[4.1.0]heptan-7-yl)methanamine]	> 6.30	< 5.30	
NC[C@]1(c2ccccc2F)[C@@H]2CCN(c3cnc4c(-c5cc(C(=O)O)ccc5Cl)n[nH]c4n3)C[C@@H]21 [Example 277, 3-(6-((1S,6R,7R)-7-(aminomethyl)-7-(2-fluorophenyl)-3-azabicyclo[4.1.0]heptan-3-yl)-1H-pyrazolo[3,4-b]pyrazin-3-yl)-4-chlorobenzoic acid]	> 6.30	< 5.30	
NC[C@]1(c2ccccc2F)[C@@H]2CCN(c3cnc4c(Sc5ccnc(N)c5Cl)n[nH]c4n3)C[C@@H]21 [Example 397, 4-((6-((1S,6R,7R)-7-(aminomethyl)-7-(2-fluorophenyl)-3-azabicyclo[4.1.0]heptan-3-yl)-1H-pyrazolo[3,4-b]pyrazin-3-yl)thio)-3-chloropyridin-2-amine]	> 6.30	> 6.00	
Cc1csc([C@@]2(CN)[C@@H]3CN(c4cnc5c(-c6ccc7nn(C8CC8)cc7c6Cl)n[nH]c5n4)C[C@@H]32)n1 [Example 528]	> 6.30		> 6.00
Cc1c(-c2n[nH]c3nc(N4CC[C@@H]5[C@H](C4)[C@@]5(CN)c4ccccc4F)cnc23)ccc2nccnc12 [Example 222, ((1S,6R,7R)-7-(2-fluorophenyl)-3-(3-(5-methylquinoxalin-6-yl)-1H-pyrazolo[3,4-b]pyrazin-6-yl)-3-azabicyclo[4.1.0]heptan-7-yl)methanamine]	> 6.30	> 6.00	
Cc1nccc(Sc2cnc(N3CC[C@@H]4[C@H](C3)[C@@]4(CN)c3ccccc3F)cn2)c1F [Example 423, ((1S,6R,7R)-3-(5-((3-fluoro-2-methylpyridin-4-yl)thio)pyrazin-2-yl)-7-(2-fluorophenyl)-3-azabicyclo[4.1.0]heptan-7-yl)methanamine]	> 6.30	< 5.30	
NC[C@]1(c2ccccc2F)[C@@H]2CCN(c3cnc4c(-c5ccc6c(c5)CNC6=O)n[nH]c4n3)C[C@@H]21 [Example 218, 5-(6-((1S,6R,7R)-7-(aminomethyl)-7-(2-fluorophenyl)-3-azabicyclo[4.1.0]heptan-3-yl)-1H-pyrazolo[3,4-b]pyrazin-3-yl)isoindolin-1-one]	> 6.30	> 6.00	
NCC1(c2cccc(F)c2)C2CCN(c3nc4[nH]nc(-c5cccc(Cl)c5Cl)c4nc3CO)CC21 (stereo not drawn) [Example 55, (6-(7-(aminomethyl)-7-(3-fluorophenyl)-3-azabicyclo[4.1.0]heptan-3-yl)-3-(2,3-dichlorophenyl)-1H-pyrazolo[3,4-b]pyrazin-5-yl)methanol]	> 6.30	> 6.00	

The remaining lines, values ahead:

pIC50 [1]	pIC50 ([2]; Homo sapiens, KYSE-520, 2 h)	pIC50 [2]	SMILES
> 6.30	> 6.00		Cn1cc2c(Cl)c(-c3n[nH]c4nc(N5C[C@@H]6[C@H](C5)[C@@]6(CN)c5nc(C(F)(F)F)cs5)cnc34)ccc2n1 [Example 488, ((1R,5S,6r)-3-(3-(4-chloro-2-methyl-2H-indazol-5-yl)-1H-pyrazolo[3,4-b]pyrazin-6-yl)-6-(4-(trifluoromethyl)thiazol-2-yl)-3-azabicyclo[3.1.0]hexan-6-yl)methanamine]
> 6.30	> 6.00		NC[C@]1(c2ccccc2)[C@@H]2CN(c3cnc4c(-c5cccc(Cl)c5Cl)n[nH]c4n3)C[C@@H]21 [Example 452, ((1R,5S,6s)-3-(3-(2,3-dichlorophenyl)-1H-pyrazolo[3,4-b]pyrazin-6-yl)-6-phenyl-3-azabicyclo[3.1.0]hexan-6-yl)methanamine]
> 6.30	> 6.00		Cc1csc([C@@]2(CN)[C@@H]3CCN(c4cnc5c(-c6ccn7nc(C)cc7c6Cl)n[nH]c5n4)C[C@@H]32)n1 [Example 440, ((1S,6R,7S)-3-(3-(4-chloro-2-methylpyrazolo[1,5-a]pyridin-5-yl)-1H-pyrazolo[3,4-b]pyrazin-6-yl)-7-(4-methylthiazol-2-yl)-3-azabicyclo[4.1.0]heptan-7-yl)methanamine]
> 6.30	> 6.00		Cc1csc([C@@]2(CN)[C@@H]3CCN(c4cnc5c(-c6ccc7nc(C)sc7c6Cl)n[nH]c5n4)C[C@@H]32)n1 [Example 444, ((1S,6R,7S)-3-(3-(7-chloro-2-methylbenzo[d]thiazol-6-yl)-1H-pyrazolo[3,4-b]pyrazin-6-yl)-7-(4-methylthiazol-2-yl)-3-azabicyclo[4.1.0]heptan-7-yl)methanamine]
> 6.30	> 6.00		Cc1cc([C@@]2(CN)[C@@H]3CCN(c4cnc5c(-c6ccc7nc(C)sc7c6Cl)n[nH]c5n4)C[C@@H]32)no1 [Example 107, ((1S,6R,7S)-3-(3-(7-chloro-2-methylbenzo[d]thiazol-6-yl)-1H-pyrazolo[3,4-b]pyrazin-6-yl)-7-(5-methylisoxazol-3-yl)-3-azabicyclo[4.1.0]heptan-7-yl)methanamine]
> 6.30	> 6.00		Cc1nccc(Sc2ccc3nc(N4CC[C@@H]5[C@H](C4)[C@@]5(CN)c4ccccc4F)cnc3n2)c1F [Example 419, ((1S,6R,7R)-3-(6-((3-fluoro-2-methylpyridin-4-yl)thio)pyrido[2,3-b]pyrazin-2-yl)-7-(2-fluorophenyl)-3-azabicyclo[4.1.0]heptan-7-yl)methanamine]
> 6.30	< 5.30		NC[C@]1(c2ccccc2F)[C@@H]2CCN(c3cnc4c(-c5ccc(C(=O)O)cc5Cl)n[nH]c4n3)C[C@@H]21 [Example 271, 4-(6-((1S,6R,7R)-7-(aminomethyl)-7-(2-fluorophenyl)-3-azabicyclo[4.1.0]heptan-3-yl)-1H-pyrazolo[3,4-b]pyrazin-3-yl)-3-chlorobenzoic acid]
> 6.30	< 5.30		NC[C@]1(c2ccccc2F)[C@@H]2CCN(c3cnc4c(-c5cc6ccccc6c(=O)[nH]5)n[nH]c4n3)C[C@@H]21 [Example 235, 3-(6-((1S,6R,7R)-7-(aminomethyl)-7-(2-fluorophenyl)-3-azabicyclo[4.1.0]heptan-3-yl)-1H-pyrazolo[3,4-b]pyrazin-3-yl)isoquinolin-1(2H)-one]
